Values after ≈ are worked out from the molar mass of the structure shown. Active and inactive are the calls of the source. The rule behind the calls is not given here.
Assays:
Homo sapiens = species: Homo sapiens; assay: Inhibition of EGFR Ex19del/T790M/C797S triple mutant (unknown origin) assessed as enzyme residence time measured by -biacore direct binding assay
[1] = Inhibition of EGFR Ex19del/T790M/C797S triple mutant (unknown origin) expressed in human NCI-H1975 cells assessed as protein phosphorylation measured after 2 hrs by ELISA; format: cell-based; conditions: NCI-H1975, 2 h
[2] = Inhibition of wild type EFGR expressed in human LoVo cell line assessed as inhibition of EGF-stimulated EGFR phosphorylation potency measured after 2 hrs by HRTF assay; format: functional
[3] = Plasma protein binding in human plasma assessed as unbound fraction; format: ADME, cell-free
[4] = Intrinsic clearance in human liver microsomes; format: ADME, Microsome; conditions: read-out: CLH
[5] = Inhibition of EGFR Ex19del/T790M/C797S triple mutant (unknown origin) incubated for 15 min measured by -CisBio HTRF KinEASE TK; parameters: species or system Homo sapiens
[6] = Aqueous solubility of the compound at pH 7.4; format: physicochemical; conditions: buffer
[7] = Lipophilicity, log D of the compound at pH 7.4; format: physicochemical; conditions: buffer
[8] = biological target: Epidermal growth factor receptor (Homo sapiens, UniProt P00533); assay: Inhibition of Wild type EGFR (unknown origin)
Epidermal growth factor receptor (Homo sapiens, UniProt P00533), sequence (P00533 whole entry): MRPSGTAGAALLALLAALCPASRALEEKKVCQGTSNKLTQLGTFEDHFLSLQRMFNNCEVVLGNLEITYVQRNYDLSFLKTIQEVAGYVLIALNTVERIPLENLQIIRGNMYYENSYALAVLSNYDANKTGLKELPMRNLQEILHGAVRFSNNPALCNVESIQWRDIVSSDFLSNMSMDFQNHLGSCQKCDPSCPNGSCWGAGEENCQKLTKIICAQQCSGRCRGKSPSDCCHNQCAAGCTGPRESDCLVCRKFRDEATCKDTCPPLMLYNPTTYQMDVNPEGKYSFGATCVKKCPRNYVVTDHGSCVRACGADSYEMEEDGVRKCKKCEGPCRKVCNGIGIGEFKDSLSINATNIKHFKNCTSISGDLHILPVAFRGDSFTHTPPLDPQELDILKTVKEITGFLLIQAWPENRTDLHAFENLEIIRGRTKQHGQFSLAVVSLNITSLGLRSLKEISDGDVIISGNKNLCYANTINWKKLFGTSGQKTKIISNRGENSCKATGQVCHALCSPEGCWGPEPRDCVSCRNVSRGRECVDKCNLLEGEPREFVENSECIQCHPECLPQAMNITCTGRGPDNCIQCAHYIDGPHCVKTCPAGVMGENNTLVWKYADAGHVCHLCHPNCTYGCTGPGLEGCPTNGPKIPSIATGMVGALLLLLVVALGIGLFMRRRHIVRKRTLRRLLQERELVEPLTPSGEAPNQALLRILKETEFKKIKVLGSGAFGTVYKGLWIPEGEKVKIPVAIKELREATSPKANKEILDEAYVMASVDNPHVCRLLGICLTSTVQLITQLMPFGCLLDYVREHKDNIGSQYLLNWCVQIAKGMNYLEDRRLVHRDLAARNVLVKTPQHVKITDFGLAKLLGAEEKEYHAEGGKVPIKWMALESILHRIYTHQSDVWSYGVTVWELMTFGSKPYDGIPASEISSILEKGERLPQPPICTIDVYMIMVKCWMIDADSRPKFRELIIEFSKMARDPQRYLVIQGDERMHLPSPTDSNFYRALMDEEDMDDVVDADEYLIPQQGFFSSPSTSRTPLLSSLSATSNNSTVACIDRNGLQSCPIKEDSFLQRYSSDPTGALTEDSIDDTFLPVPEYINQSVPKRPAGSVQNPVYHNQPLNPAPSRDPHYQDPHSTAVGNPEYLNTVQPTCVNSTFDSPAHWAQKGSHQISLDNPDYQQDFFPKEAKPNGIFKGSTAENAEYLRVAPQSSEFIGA

[9] = Intrinsic permeability of compound across apical to basolateral side in human Caco-2 cells; format: ADME, cell-based; conditions: read-out: permeability
[10] = Intrinsic clearance in rat hepatocyte measured per 10^6 cells; format: ADME, tissue-based; conditions: hepatocytes
[11] = Inhibition of EFGR Ex19del (unknown origin) expressed in human PC-9 cells assessed as inhibition of EGF-induced phosphorylation measured after 2 hrs by ELISA; format: cell-based; conditions: PC-9, 2 h
[12] = Inhibition of EGFR Exon19Del/C797S double mutant (unknown origin) by biochemical assay; parameters: species or system Homo sapiens
[13] = Inhibition of EFGR Ex19del/T790M/C797S triple mutant (unknown origin) expressed in human PC-9-VanR cells assessed as inhibition of EGF-induced phosphorylation measured after 2 hrs by ELISA; format: cell-based; conditions: PC-9, 2 h
[14] = Dissociation constant, pKa of compound; format: physicochemical
[15] = Toxicity in mouse NSG assessed as change in body weight at 50 mg/kg, sc bid for 14 to 21 days; format: organism-based; conditions: in vivo, time 14-21 day
NCI-H1975 = assay: Antitumour activity against human NCI-H1975 cells harboring EGFR L858R/T790M double mutant xenografted in NSG mouse model assessed as tumour growth inhibition at 50 mg/kg, sc bid for 14 days relative to control; format: functional; conditions: 336 h, time 14 day, read-out: TGI
PC-9 [16] = assay: Antitumour activity against human PC-9-VanR cells harboring EGFR Ex19del/T790M/C797S triple mutant xenografted in NSG mouse model assessed as tumour growth inhibition at 50 mg/kg, sc bid for 21 days; format: functional; conditions: PC-9, sc, 504 h, time 21 day, read-out: TGI
PC-9 [17] = assay: In vivo inhibition of EGFR in human PC-9-VanR cells harboring EGFR Ex19del/T790M/C797S triple mutant xenografted in NSG mouse model assessed as inhibition of ERK phosphorylation in tumor at 50 mg/kg, sc bid for 21 days by immunoblot analysis; format: functional, organism-based; conditions: time 21.0 day
PC-9 [18] = assay: In vivo inhibition of EGFR in human PC-9-VanR cells harboring EGFR Ex19del/T790M/C797S triple mutant xenografted in NSG mouse model assessed as inhibition of EGFR phosphorylation in tumor at 50 mg/kg, sc bid for 21 days by immunoblot analysis; format: functional, organism-based; conditions: time 21.0 day
[19] = biological target: Epidermal growth factor receptor (Homo sapiens, UniProt P00533, L858R/T790M)
Epidermal growth factor receptor (Homo sapiens, UniProt P00533, L858R/T790M), sequence (P00533 25-1210 T790M/L858R limits assumed): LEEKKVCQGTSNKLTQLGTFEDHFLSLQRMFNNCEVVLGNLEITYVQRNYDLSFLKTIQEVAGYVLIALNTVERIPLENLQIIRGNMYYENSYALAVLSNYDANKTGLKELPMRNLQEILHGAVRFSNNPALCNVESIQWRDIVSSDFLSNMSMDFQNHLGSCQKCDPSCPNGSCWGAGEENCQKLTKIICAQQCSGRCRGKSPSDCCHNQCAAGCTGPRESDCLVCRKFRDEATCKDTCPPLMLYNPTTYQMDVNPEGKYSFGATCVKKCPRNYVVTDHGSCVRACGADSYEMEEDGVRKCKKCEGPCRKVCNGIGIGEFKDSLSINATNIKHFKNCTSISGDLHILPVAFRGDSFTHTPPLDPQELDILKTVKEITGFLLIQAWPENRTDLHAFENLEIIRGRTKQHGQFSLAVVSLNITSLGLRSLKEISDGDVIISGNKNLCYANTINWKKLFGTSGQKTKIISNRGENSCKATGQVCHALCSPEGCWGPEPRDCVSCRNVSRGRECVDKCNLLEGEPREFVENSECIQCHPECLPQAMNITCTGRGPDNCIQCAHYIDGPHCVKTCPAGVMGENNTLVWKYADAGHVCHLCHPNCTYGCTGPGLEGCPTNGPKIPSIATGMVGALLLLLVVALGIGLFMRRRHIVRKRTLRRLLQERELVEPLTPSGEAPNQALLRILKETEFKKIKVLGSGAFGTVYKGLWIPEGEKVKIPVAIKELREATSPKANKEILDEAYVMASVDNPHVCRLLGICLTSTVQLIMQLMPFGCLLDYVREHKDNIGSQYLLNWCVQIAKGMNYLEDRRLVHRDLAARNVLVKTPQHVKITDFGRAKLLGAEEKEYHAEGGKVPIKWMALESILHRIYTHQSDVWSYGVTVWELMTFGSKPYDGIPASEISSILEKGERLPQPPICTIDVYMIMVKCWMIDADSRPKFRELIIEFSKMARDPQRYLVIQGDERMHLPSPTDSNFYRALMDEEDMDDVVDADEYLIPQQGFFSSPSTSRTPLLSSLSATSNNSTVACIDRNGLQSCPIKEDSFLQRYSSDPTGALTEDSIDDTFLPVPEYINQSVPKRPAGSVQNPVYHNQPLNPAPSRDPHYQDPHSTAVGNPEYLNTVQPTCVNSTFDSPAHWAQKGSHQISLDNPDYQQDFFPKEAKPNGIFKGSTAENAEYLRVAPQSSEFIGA

PC-9 [20] = assay: In vivo inhibition of EGFR in human PC-9-VanR cells harboring EGFR Ex19del/T790M/C797S triple mutant xenografted in NSG mouse model assessed as inhibition of S6 phosphorylation in tumor at 50 mg/kg, sc bid for 21 days by immunoblot analysis; format: functional, organism-based; conditions: time 21.0 day
PC-9 [21] = assay: In vivo inhibition of EGFR in human PC-9-VanR cells harboring EGFR Ex19del/T790M/C797S triple mutant xenografted in NSG mouse model assessed as inhibition of Akt phosphorylation in tumor at 50 mg/kg, sc bid for 21 days by immunoblot analysis; format: functional, organism-based; conditions: time 21.0 day

Structure (SMILES)	TIME (Homo sapiens)	IC50 [1]	IC50 [2]	fraction unbound ([3]; read-out: Fu)	microsomal CLint [4]	IC50 [5]	solubility [6]	logD [7]	IC50 [8]	Papp A→B at 10 µM [9]	CLH [10]	further results
COc1cc(N2CCC(N3CCN(C)CC3)CC2)c(-c2cn[nH]c2)cc1Nc1ncc(Cl)c(Nc2ccccc2P(C)(C)=O)n1	2.2 h	498 nM	726 nM	0.1	28 µL/min/mg	0.3 nM	> 1000 µM	2.5	–	–	–	–
COc1cc(N2CCC(N3CCN(C)CC3)CC2)c(-c2cnn(C)c2)cc1Nc1ncc(Cl)c(Nc2ccccc2P(C)(C)=O)n1	2.52 h	91 nM	140 nM	0.228	21 µL/min/mg	0.32 nM	> 1000 µM	2.7	0.92 nM	< 0.62 ×10⁻⁶ cm/s	< 1 uL/min/10^6 cells	–
COc1cc(N2CCOCC2)c(-c2cn[nH]c2)cc1Nc1ncc(Cl)c(Nc2ccccc2P(C)(C)=O)n1	3.97 h	1090 nM	2140 nM	0.009	28 µL/min/mg	–	< 3 µM	3.4	–	18 ×10⁻⁶ cm/s	–	–
COc1cc(N2CCC(N3CCN(C)CC3)CC2)ccc1Nc1ncc(Cl)c(Nc2ccccc2P(C)(C)=O)n1 [BRIGATINIB]	0.333 h	459 nM	2030 nM	–	3.1 µL/min/mg	7 nM	> 1190 µM	2.3	–	4.7 ×10⁻⁶ cm/s	–	IC50 [11]: 357 nM; IC50 [12]: 132 nM; IC50 [13]: 2680 nM; fraction unbound [3]: 0.155
COc1cc(N2CCN(C)CC2)c(-c2cnn(C)c2)cc1Nc1ncc(Cl)c(Nc2ccccc2P(C)(C)=O)n1	2.65 h	241 nM	79 nM	0.243	24 µL/min/mg	0.23 nM	> 1000 µM	2.4	3.3 nM	2.6 ×10⁻⁶ cm/s	< 1 uL/min/10^6 cells	pKa [14]: 7.6
CCP(=O)(CC)c1ccccc1Nc1nc(Nc2cc(-c3cnn(C)c3)c(N3CCOCC3)cc2OC)ncc1Cl	1.83 h	139 nM	–	0.041	71 µL/min/mg	0.2 nM	–	4	2.4 nM	78 ×10⁻⁶ cm/s	67 uL/min/10^6 cells	–
COc1cc(N2CCOCC2)c(-c2cnn(C)c2)cc1Nc1ncc(Cl)c(Nc2ccccc2P(C)(C)=O)n1	1.37 h	122 nM	1180 nM	0.07	49 µL/min/mg	0.2 nM	8.7 µM (≈ 4.94 µg/mL)	3	4.4 nM	61 ×10⁻⁶ cm/s	16 uL/min/10^6 cells	Activity [15]: Toxic; inhibition in vivo at 50 mg/kg (NCI-H1975): 87%; inhibition in vivo at 50 mg/kg (PC-9 [16]): 52%; Activity (PC-9 [17]): Active; IC50 [11]: 52 nM; Activity (PC-9 [18]): Active; IC50 [19]: 32 nM; IC50 [13]: 739 nM; Activity (PC-9 [20]): Active; Activity (PC-9 [21]): Active
COc1cc(N2CCC(N(C)C)CC2)c(-c2cn[nH]c2)cc1Nc1ncc(Cl)c(Nc2ccccc2P(C)(C)=O)n1	2.3 h	2010 nM	373 nM	0.19	23 µL/min/mg	0.5 nM	> 1000 µM	1.8	0.9 nM	0.24 ×10⁻⁶ cm/s	< 1 uL/min/10^6 cells	–
C=CC(=O)Nc1cc(Nc2nccc(-c3cn(C)c4ccccc34)n2)c(OC)cc1N(C)CCN(C)C [OSIMERTINIB]	–	–	–	–	–	–	–	–	–	–	–	IC50 [12]: 44 nM
COc1cc(N2CCC(N(C)C)CC2)c(-c2cnn(C)c2)cc1Nc1ncc(Cl)c(Nc2ccccc2P(C)(C)=O)n1	1.08 h	–	101 nM	0.272	31 µL/min/mg	0.19 nM	> 1000 µM	1.9	1.7 nM	< 0.24 ×10⁻⁶ cm/s	< 1 uL/min/10^6 cells	pKa [14]: 9.4

From ChEMBL document CHEMBL5030539, “Potent and Selective Inhibitors of the Epidermal Growth Factor Receptor to Overcome C797S-Mediated Resistance” (J Med Chem, 2021)
